From patent US9415023B2, “Compositions comprising terpene compounds for treating negative sensory phenomena” (NeuroQuest Inc., priority 2008, dated 2016)
Entries after “also recorded” stand apart in the source; their conditions may differ.

How the values were obtained:
cortical neuron = assay: Perforated patch clamp electrophysiology of mouse brain slices; assay type: cell-based; conditions: for membrane current (current-voltage relation): geraniol vs. control
Method: Studies were conducted on mouse hippocampal brain slice preparations. In terms of the slice preparations, […] coronal brain slices were prepared from animals housed in a 12 hour light (ZT 0-12):12 hour dark (ZT 12-24) environment. Animals were anesthetized with isoflurane, decapitated, the brain rapidly removed and placed in ice cold, oxygenated (95% 02:5% C02), bicarbonate-buffered artificial cerebral spinal fluid (ACSF). A 1 cm^2 block of brain tissue containing the hippocampi was glued to a cutting surface and coronal slices were prepared using a Leica VT1000S microtome (Leica Microsystems). All slices were left to equilibrate for approximately one hour prior to the transfer to a recording chamber. Once transferred to the chamber, slices were continuously superfused with oxygenated ACSF at a rate of 3 ml/min @30° C. and recordings are generally made for the next 6-12 hours. Patch microelectrodes (5-8 MΩ) made from borosilicate glass (Garner Glass Co.) and filled with K^+ based internal patch solution composed of: (in mM) 120 K-acetate, 40 HEPES, 10 EGTA, 6 MgCl2, nystatin (450 μg/ml) or gramicidin B (5 μg/ml) and pluronic acid F127.
The perforated patch recording technique and will be used (Korn & Horn, 1989) and viable Hippocampal neurons were visually targeted using Infrared Differential Interference Contrast (IR-DIC) microscopy using a Leica DM LFSA scope. […] Recordings were made from 3 different patch rigs equipped with either […] patch clamp amplifiers interfaced via a Digidata 1322A to a PC computer or on, in terms of the studies performed on dissociated DRG neurons, a Zeiss Axoscop 200 inverted microscope equipped with an Axopatch 200B/Digidata 1322A using Pclamp 9.0 and Axoscope 9 software.
Test compounds were bath-applied by superfusion to examine for changes in excitability and/or attenuation of ion channels and the effects of compounds on evoked synaptic responses. Stimulating electrodes (concentric or bipolar) were placed within the slices and in accordance with the well known fiber tract pathways of passage for the DH and the hippocampus.

[1] = Subject-reported relief of numbness and pain after topical application (case studies); assay type: in vivo, human
Method: (§1) A natural blend of geranium oil and other essential oils (Table 1) was also tested in a panel of human neuropathic pain sufferers, some of whom experienced negative sensory phenomena. […] The geranium oil blend or geraniol was topically applied in therapeutically effective amounts to areas of the human body affected with symptoms of negative sensory symptoms. Dosage amount depended on the size of the patient's affected areas. […] Once administered, a typical positive response was reported typically within minutes.

[2] = Nylon filament test of sensation after topical application (case studies); assay type: in vivo, human
Method: as §1
7, 2008 and complained of numbness on the soles of their feet. Their sensation was tested with a nylon filament and the patient could not feel the filament on the ball of either foot. Geraniol was applied to the ball of one foot. After approximately 5 minutes the feet were retested with the nylon filament. The foot that had not been treated still could not detect the touch of the filament.
They could not feel a nylon filament used to test sensation on the bottom of either foot. They had geraniol applied to the left foot and the sensation was retested after 5 minutes. […] The patient was given geraniol to use on the left foot every other day.

SMILES: CC(C)=CCC/C(C)=C/CO [geraniol, 2,6-Octadien-1-ol, 3,7-dimethyl-, (2E)-]
- action potentials during current-voltage steps (cortical neuron; 10 mV steps (250 ms) from -110 to -20 mV, in presence of compound): inhibition of action potentials
- membrane current (current-voltage relation) (cortical neuron; 10 mV steps (250 ms) from -110 to -20 mV): reduction in the membrane current amplitude; also recorded: reduction of membrane currents
- membrane current (current-voltage relation) (cortical neuron; 10 mV steps (250 ms) from -110 to -20 mV, listed as Geraniol): reduction of membrane currents
- action potential following depolarizing current pulse (cortical neuron; depolarizing current pulse of 0.4 nA): inhibition of action potential
- net current reduction (current differential between control and tested compound) (cortical neuron; most negative voltage step (-110 mV), FIG. 3, ranking among samples): greatest inhibition
- numbness / negative sensory phenomena, subject-reported [1]: improvements seen in subjectively reported symptoms
- feeling in treated foot vs untreated foot ([2]; topical every other day, over 2 week period): continued to have more feeling than the right foot
- sensation tested with nylon filament on treated foot ([2]; topical, retested after approximately 5 minutes, untreated foot as comparison): improvements in sensory functioning; also recorded: able to feel the nylon filament; also recorded: could detect feeling with a nylon filament
